Reference: ChEMBL document CHEMBL1201862, “PubChem BioAssay data set” (2004)
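Results reflect a 48-hour exposure of cells in 96-well plates to compound at five concentrations. GI50 is the concentration that inhibits growth by half.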 Calls of active or inactive are those of the source. Rule as the data show it: active = GI50 up to about 1.1 µM and inactive = higher.

Columns and labels:
Test in all cases: NCI anticancer screen, dose series, 48 h
BT-549 = test system: BT-549
HOP-92 = test system: HOP-92
HT-29 = test system: HT-29
Hs-578T = test system: Hs-578T
IGROV-1 = test system: IGROV-1
LOX IMVI = test system: LOX IMVI
M14 = test system: M14
MOLT-4 = test system: MOLT-4
NCI-H226 = test system: NCI-H226
NCI-H23 = test system: NCI-H23
OVCAR-3 = test system: OVCAR-3
OVCAR-8 = test system: OVCAR-8
RXF 393 = test system: RXF 393
SNB-19 = test system: SNB-19
TK-10 = test system: TK-10
UACC-62 = test system: UACC-62
UO-31 = test system: UO-31
COLO 205 = test system: COLO 205
RPMI-8226 = test system: RPMI-8226
CCRF-CEM = test system: CCRF-CEM

SMILES: Cc1ncc(COP(=O)(O)O)c(C)c1O
- GI50 (BT-549): > 100 µM (inactive)
- GI50 (HOP-92): > 100 µM (inactive)
- GI50 (HT-29): > 100 µM (inactive)
- GI50 (Hs-578T): > 100 µM (inactive)
- GI50 (IGROV-1): > 100 µM (inactive)
- GI50 (LOX IMVI): > 100 µM (inactive)
- GI50 (M14): > 100 µM (inactive)
- GI50 (MOLT-4): > 100 µM (inactive)
- GI50 (NCI-H226): > 100 µM (inactive)
- GI50 (NCI-H23): > 100 µM (inactive)
- GI50 (OVCAR-3): > 100 µM (inactive)
- GI50 (OVCAR-8): > 100 µM (inactive)
- GI50 (RXF 393): > 100 µM (inactive)
- GI50 (SNB-19): > 100 µM (inactive)
- GI50 (TK-10): > 100 µM (inactive)
- GI50 (UACC-62): > 100 µM (inactive)
- GI50 (UO-31): > 100 µM (inactive)

SMILES: N#Cc1c(C#N)c(SSc2c(C#N)c(C#N)c(N)n2-c2ccccc2)n(-c2ccccc2)c1N
- GI50 (BT-549): 5.57 µM (inactive)
- GI50 (COLO 205): 1.99 µM (inactive)
- GI50 (HOP-92): 2.08 µM (inactive)
- GI50 (HT-29): 40.5 µM (inactive)
- GI50 (Hs-578T): 24.7 µM (inactive)
- GI50 (IGROV-1): 28.4 µM (inactive)
- GI50 (LOX IMVI): 86.7 µM (inactive)
- GI50 (M14): 7.69 µM (inactive)
- GI50 (MOLT-4): 5.89 µM (inactive)
- GI50 (NCI-H226): 22.3 µM (inactive)
- GI50 (NCI-H23): 23.6 µM (inactive)
- GI50 (OVCAR-3): 16.7 µM (inactive)
- GI50 (OVCAR-8): > 100 µM (inactive)
- GI50 (RPMI-8226): 2.78 µM (inactive)
- GI50 (RXF 393): 18.3 µM (inactive)
- GI50 (SNB-19): 22.4 µM (inactive)
- GI50 (TK-10): 1.82 µM (inactive)
- GI50 (UACC-62): 16.9 µM (inactive)
- GI50 (UO-31): 1.91 µM (inactive)

SMILES: CC1(C)S[C@H](CN)N[C@H]1C(=O)OC(c1ccccc1)c1ccccc1
- GI50 (BT-549): 24.8 µM (inactive)
- GI50 (COLO 205): 17.6 µM (inactive)
- GI50 (HOP-92): 16.7 µM (inactive)
- GI50 (HT-29): 33.7 µM (inactive)
- GI50 (Hs-578T): 83.2 µM (inactive)
- GI50 (IGROV-1): 37.4 µM (inactive)
- GI50 (LOX IMVI): 17.4 µM (inactive)
- GI50 (M14): 34.2 µM (inactive)
- GI50 (MOLT-4): 24.3 µM (inactive)
- GI50 (NCI-H226): > 100 µM (inactive)
- GI50 (NCI-H23): 48.3 µM (inactive)
- GI50 (OVCAR-8): 57.9 µM (inactive)
- GI50 (RPMI-8226): 21.6 µM (inactive)
- GI50 (RXF 393): 63.5 µM (inactive)
- GI50 (TK-10): 61.7 µM (inactive)
- GI50 (UACC-62): 22.9 µM (inactive)
- GI50 (UO-31): 22.3 µM (inactive)

SMILES: N#Cc1nc(CSCc2ccccc2)oc1N
- GI50 (BT-549): > 100 µM (inactive)
- GI50 (CCRF-CEM): 19.8 µM (inactive)
- GI50 (COLO 205): > 100 µM (inactive)
- GI50 (HOP-92): > 100 µM (inactive)
- GI50 (HT-29): > 100 µM (inactive)
- GI50 (Hs-578T): > 100 µM (inactive)
- GI50 (IGROV-1): > 100 µM (inactive)
- GI50 (M14): > 100 µM (inactive)
- GI50 (MOLT-4): > 100 µM (inactive)
- GI50 (NCI-H226): > 100 µM (inactive)
- GI50 (NCI-H23): > 100 µM (inactive)
- GI50 (OVCAR-3): > 100 µM (inactive)
- GI50 (OVCAR-8): > 100 µM (inactive)
- GI50 (RXF 393): > 100 µM (inactive)
- GI50 (TK-10): > 100 µM (inactive)
- GI50 (UACC-62): > 100 µM (inactive)
- GI50 (UO-31): > 100 µM (inactive)

SMILES: C1=CN2C[n+]3cccc(OCc4ccccc4)c3N=C2C(OCc2ccccc2)=C1
- GI50 (BT-549): 0.344 µM (active)
- GI50 (COLO 205): 3.88 µM (inactive)
- GI50 (HOP-92): 12.5 µM (inactive)
- GI50 (HT-29): 8.04 µM (inactive)
- GI50 (Hs-578T): 2.36 µM (inactive)
- GI50 (IGROV-1): 11.5 µM (inactive)
- GI50 (LOX IMVI): 20.8 µM (inactive)
- GI50 (M14): 16.4 µM (inactive)
- GI50 (NCI-H226): 29.4 µM (inactive)
- GI50 (NCI-H23): 10.3 µM (inactive)
- GI50 (OVCAR-3): 5.14 µM (inactive)
- GI50 (OVCAR-8): 17.4 µM (inactive)
- GI50 (RPMI-8226): 2.84 µM (inactive)
- GI50 (RXF 393): 44.9 µM (inactive)
- GI50 (SNB-19): 5.18 µM (inactive)
- GI50 (TK-10): 56 µM (inactive)
- GI50 (UACC-62): 11.9 µM (inactive)
- GI50 (UO-31): > 100 µM (inactive)

SMILES: CC1=CC(=O)/C(=C/NC(=O)NN)C(=O)O1
- GI50 (BT-549): > 100 µM (inactive)
- GI50 (CCRF-CEM): > 100 µM (inactive)
- GI50 (COLO 205): > 100 µM (inactive)
- GI50 (HOP-92): > 100 µM (inactive)
- GI50 (Hs-578T): > 100 µM (inactive)
- GI50 (IGROV-1): 58.5 µM (inactive)
- GI50 (LOX IMVI): > 100 µM (inactive)
- GI50 (M14): > 100 µM (inactive)
- GI50 (MOLT-4): > 100 µM (inactive)
- GI50 (NCI-H23): > 100 µM (inactive)
- GI50 (OVCAR-3): > 100 µM (inactive)
- GI50 (OVCAR-8): > 100 µM (inactive)
- GI50 (RXF 393): > 100 µM (inactive)
- GI50 (SNB-19): > 100 µM (inactive)
- GI50 (TK-10): > 100 µM (inactive)
- GI50 (UACC-62): > 100 µM (inactive)
- GI50 (UO-31): > 100 µM (inactive)
